According to ChEMBL document CHEMBL3872258, “Challenges in the development of an M4 PAM in vivo tool compound: The discovery of VU0467154 and unexpected DMPK profiles of close analogs” (Bioorg Med Chem Lett, 2017):
Numbering of substitutions follows the chain as printed.

Key:
[1] = molecular target: T1, Muscarinic acetylcholine receptor M1 (Rattus norvegicus, UniProt P08482); assay: Binding affinity to rat M1 receptor by radio-ligand binding assay
T1 sequence (P08482 whole entry): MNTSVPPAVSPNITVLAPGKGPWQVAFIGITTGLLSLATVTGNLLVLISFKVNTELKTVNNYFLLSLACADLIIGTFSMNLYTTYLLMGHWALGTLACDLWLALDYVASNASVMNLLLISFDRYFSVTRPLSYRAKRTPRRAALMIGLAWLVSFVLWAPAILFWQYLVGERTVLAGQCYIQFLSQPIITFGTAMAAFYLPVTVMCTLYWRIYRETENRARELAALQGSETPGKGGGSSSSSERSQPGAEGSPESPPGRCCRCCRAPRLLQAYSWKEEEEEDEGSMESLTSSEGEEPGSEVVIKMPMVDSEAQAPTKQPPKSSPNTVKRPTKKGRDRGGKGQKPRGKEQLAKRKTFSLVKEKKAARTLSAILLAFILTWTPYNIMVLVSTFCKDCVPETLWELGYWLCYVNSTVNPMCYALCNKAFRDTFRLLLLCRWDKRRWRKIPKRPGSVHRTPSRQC

[2] = molecular target: T2, Muscarinic acetylcholine receptor M4 (Homo sapiens) (UniProt P08173); assay: Positive allosteric modulation of human M4 receptor expressed in CHO cells co-expressing Gqui5 by calcium mobilization assay relative to acetylcholine; format: functional, cell-based
T2 sequence (whole entry): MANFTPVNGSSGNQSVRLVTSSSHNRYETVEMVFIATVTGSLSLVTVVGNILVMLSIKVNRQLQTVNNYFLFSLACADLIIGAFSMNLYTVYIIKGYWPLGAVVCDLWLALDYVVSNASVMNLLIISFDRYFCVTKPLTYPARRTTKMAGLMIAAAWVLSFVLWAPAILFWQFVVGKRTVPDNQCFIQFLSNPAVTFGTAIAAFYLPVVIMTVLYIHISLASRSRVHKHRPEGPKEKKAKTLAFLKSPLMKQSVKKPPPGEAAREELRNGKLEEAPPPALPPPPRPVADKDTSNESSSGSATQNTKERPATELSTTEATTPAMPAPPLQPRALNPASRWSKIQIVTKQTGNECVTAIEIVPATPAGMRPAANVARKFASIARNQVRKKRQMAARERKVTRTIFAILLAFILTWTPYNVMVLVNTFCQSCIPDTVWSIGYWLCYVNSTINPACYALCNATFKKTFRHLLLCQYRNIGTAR

Rattus norvegicus = assay: Reversal of amphetamine-induced hyperlocomotion in Sprague-Dawley rat at 10 mg/kg, po administered 30 mins after habituation in the chamber followed by amphetamine injection measured for 60 mins; format: functional
[3] = Intrinsic clearance in human; format: ADME
[4] = Ratio of total drug level in Sprague-Dawley rat brain to plasma at 0.20-0.25 mg/kg, iv at 0.25 hrs
[5] = Volume of distribution at steady state in Sprague-Dawley rat at 1 mg/kg, iv; format: ADME, organism-based; details: in vivo; for Vd: Sprague-Dawley, read-out: Vdss
Cytochrome P450 1A2 = molecular target: T3, Cytochrome P450 1A2 (Homo sapiens, UniProt P05177); assay: Inhibition of CYP1A2 (unknown origin); format: ADME
T3 sequence (P05177 whole entry): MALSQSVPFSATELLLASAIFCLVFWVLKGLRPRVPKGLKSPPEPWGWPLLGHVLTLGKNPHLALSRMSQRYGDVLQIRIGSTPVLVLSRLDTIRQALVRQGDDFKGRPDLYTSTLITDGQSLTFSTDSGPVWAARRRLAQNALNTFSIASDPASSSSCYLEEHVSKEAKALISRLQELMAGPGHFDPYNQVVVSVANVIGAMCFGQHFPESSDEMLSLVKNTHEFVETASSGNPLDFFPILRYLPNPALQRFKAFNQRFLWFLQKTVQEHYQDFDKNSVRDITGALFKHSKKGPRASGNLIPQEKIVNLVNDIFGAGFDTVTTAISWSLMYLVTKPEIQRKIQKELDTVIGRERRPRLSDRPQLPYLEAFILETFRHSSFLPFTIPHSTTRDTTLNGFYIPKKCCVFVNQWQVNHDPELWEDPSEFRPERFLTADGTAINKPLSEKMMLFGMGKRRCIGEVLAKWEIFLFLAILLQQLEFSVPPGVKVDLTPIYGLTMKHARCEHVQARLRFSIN

[6] = molecular target: T4, Muscarinic acetylcholine receptor M5 (Homo sapiens, UniProt P08912); assay: Binding affinity to human M5 receptor by radio-ligand binding assay
T4 sequence (P08912 whole entry): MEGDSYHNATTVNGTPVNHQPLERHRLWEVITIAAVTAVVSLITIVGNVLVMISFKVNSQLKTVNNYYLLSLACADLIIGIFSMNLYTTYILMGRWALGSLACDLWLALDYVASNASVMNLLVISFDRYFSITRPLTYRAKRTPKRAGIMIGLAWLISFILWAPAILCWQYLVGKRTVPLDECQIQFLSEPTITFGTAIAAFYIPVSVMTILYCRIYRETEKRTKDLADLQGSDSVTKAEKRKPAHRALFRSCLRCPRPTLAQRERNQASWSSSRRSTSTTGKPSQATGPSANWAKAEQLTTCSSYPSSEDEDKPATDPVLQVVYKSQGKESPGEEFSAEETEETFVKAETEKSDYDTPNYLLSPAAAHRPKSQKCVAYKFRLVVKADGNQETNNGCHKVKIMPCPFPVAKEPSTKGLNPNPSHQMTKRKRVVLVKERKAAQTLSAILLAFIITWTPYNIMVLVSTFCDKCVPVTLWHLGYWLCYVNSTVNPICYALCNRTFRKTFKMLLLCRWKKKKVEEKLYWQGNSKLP

[7] = Intrinsic clearance in rat; format: ADME
[8] = molecular target: Muscarinic acetylcholine receptor M3 (Rattus norvegicus, UniProt P08483); assay: Binding affinity to rat M3 receptor by radio-ligand binding assay
Cytochrome P450 2D6 = Cytochrome P450 2D6 (Homo sapiens, UniProt P10635); assay: Inhibition of CYP2D6 (unknown origin); format: ADME
[9] = molecular target: T5, Muscarinic acetylcholine receptor M1 (Homo sapiens, UniProt P11229); assay: Displacement of [3H]-N-Methylscopolamine from human M1 receptor expressed in CHOK1 cells; format: cell-based, CHO-K1
T5 sequence (P11229 whole entry): T1 sequence (P08482 whole entry) with V5A, S254T, S309P, K320R, G337A, V413I

Chain of Muscarinic acetylcholine receptor M3 (P08483 whole entry): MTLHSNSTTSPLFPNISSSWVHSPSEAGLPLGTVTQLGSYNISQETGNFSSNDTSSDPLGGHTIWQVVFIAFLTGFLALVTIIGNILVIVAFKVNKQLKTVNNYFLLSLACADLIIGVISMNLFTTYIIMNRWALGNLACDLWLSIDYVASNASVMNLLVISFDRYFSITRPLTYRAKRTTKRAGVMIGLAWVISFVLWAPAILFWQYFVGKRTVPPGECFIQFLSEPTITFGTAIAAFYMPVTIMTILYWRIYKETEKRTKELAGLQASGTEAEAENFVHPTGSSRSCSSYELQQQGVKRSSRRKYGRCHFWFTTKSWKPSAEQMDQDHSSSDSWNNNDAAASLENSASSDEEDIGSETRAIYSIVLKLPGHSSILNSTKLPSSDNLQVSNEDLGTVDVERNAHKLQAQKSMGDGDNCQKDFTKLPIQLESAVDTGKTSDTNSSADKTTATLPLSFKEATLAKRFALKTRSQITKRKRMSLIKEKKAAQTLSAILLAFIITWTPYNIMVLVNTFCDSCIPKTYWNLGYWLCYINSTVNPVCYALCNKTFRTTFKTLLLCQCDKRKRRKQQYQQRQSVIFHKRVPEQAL
Chain of Cytochrome P450 2D6 (P10635 whole entry): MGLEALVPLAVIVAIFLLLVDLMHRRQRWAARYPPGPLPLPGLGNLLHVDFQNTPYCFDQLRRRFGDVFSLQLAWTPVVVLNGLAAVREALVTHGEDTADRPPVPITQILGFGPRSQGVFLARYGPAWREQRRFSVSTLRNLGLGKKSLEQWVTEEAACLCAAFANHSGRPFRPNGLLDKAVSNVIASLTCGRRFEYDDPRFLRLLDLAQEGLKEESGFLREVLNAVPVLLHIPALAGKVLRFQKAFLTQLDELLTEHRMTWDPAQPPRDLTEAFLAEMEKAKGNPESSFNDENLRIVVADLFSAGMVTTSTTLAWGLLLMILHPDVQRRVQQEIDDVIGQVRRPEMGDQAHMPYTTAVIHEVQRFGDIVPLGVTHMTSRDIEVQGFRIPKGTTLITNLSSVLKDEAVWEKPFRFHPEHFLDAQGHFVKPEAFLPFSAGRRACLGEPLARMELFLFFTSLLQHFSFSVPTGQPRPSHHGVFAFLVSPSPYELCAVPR

Cc1nnc2sc(C(=O)NCc3ccc(S(=O)(=O)C(F)(F)F)cc3)c(N)c2c1C
EC50 [1]: > 30 µM | Emax [2]: 56.4% | Activity (Rattus norvegicus): 55.3% | CLint scaled [3]: 19.8 mL/min/kg | Kp [4]: 0.49 | Vdss [5]: 3.1 L/kg | IC50 (Cytochrome P450 1A2): > 30 µM | EC50 [6]: > 30 µM | CLint scaled [7]: 47.7 mL/min/kg | EC50 [8]: > 30 µM | IC50 (Cytochrome P450 2D6): > 30 µM | EC50 [9]: > 30 µM

Cc1nnc2sc(C(=O)NCc3ccc(S(F)(F)(F)(F)F)cc3)c(N)c2c1C
EC50 [1]: > 30 µM | Emax [2]: 66.1% | Activity (Rattus norvegicus): 66.3% | CLint scaled [3]: 52.8 mL/min/kg | Kp [4]: 1 | Vd [5]: 3.1 L/kg | IC50 (Cytochrome P450 1A2): > 30 µM | EC50 [6]: > 30 µM | CLint scaled [7]: 95.9 mL/min/kg | EC50 [8]: > 30 µM | IC50 (Cytochrome P450 2D6): 23.9 µM | EC50 [9]: > 30 µM

Cc1nnc2sc(C(=O)NCc3ccc(S(=O)(=O)C(F)F)cc3)c(N)c2c1C
EC50 [1]: > 30 µM | Emax [2]: 72.8% | Activity (Rattus norvegicus): 49.3% | CLint scaled [3]: 15.6 mL/min/kg | Kp [4]: 0.11 | Vd [5]: 2.9 L/kg | IC50 (Cytochrome P450 1A2): > 30 µM | EC50 [6]: > 30 µM | CLint scaled [7]: 48.1 mL/min/kg | EC50 [8]: > 30 µM | IC50 (Cytochrome P450 2D6): 20.8 µM | EC50 [9]: > 30 µM
